Data: patent US12359121B2, “Neutral fluorescent mitochondrial marker as amide derivative, and preparation method and use thereof” (SOOCHOW UNIVERSITY, priority 2021, dated 2025)

Key:
[1] = Photo stability under iodine tungsten lamp irradiation (residual absorptivity); format: physicochemical; conditions: 10 μM in acetonitrile; 6 hrs continuous irradiation, 500 W iodine tungsten lamp, 25 cm
Method: The photo stability of dyes 2a-2e, and 3a-e (with a concentration of 10 μM) prepared above was tested. Corresponding weights of dyes 2a-2e and 3a-e and their references coumarin and Nile red were weighed, and dissolved in acetonitrile (at a concentration of 10 μM) respectively. All the samples were irradiated with a Philips iodine tungsten lamp (500 W), and the distance between the lamp and the sample was set to 25 cm. An 8 cm-thick NaNO2 (60 g·L^−1) cold trap was positioned between the lamp and the sample, to eliminate heat and short-wavelength light. The irradiation was continued for 6 hrs, during which the ultraviolet fluorescence was tested every half an hour. After 6 hrs, the light stability was measured by residual absorptivity calculated based on the change in the absorption intensity at various times before and after the irradiation. […] The residual absorptivity of dyes 2a-e, and 3a-e is 2a: 93%, 2b: 92%, 2c: 95%, 2d: 91%, 2e: 97%, 3a: 93%, 3b: 92%, 3c: 94%, 3d: 93%, 3e: 92%. It can be seen that dyes 2a-2e and 3a-e have higher photo stability.

[2] = tested on: mitochondria in HeLa cells; assay: Colocalization imaging with red mitochondrial marker Mito Tracker Red CMXRos, laser confocal microscope; format: cell-based; conditions: 2 μM; for mitochondria labeling ability: blue channel; for colocalization coefficient: versus Mito Tracker Red CMXRos (100 nm)
Method: To test the fluorescent labeling ability of Compound 2a compared with commercial mitochondrial markers, dye 2a was formulated into a mother liquor in DMSO (dimethyl sulfoxide), and then added to a conventional cell culture medium to give a concentration of dye 2a in the cell culture medium of 2 μM. HeLa cells were co-cultured for 10 min in an incubator at saturated humidity, 37° C., and 5% CO2 (the experiment was same below). The red mitochondrial marker Mito Tracker© Red CMXRos (100 nm) was added, and the cells were co-incubated for another 10 min, washed three times with a PBS buffer, and imaged under a laser confocal microscope. In the blue channel, light of 405 nm was used for excitation, and a fluorescence signal in the range of 410-500 nm was collected; and in the red channel, light of 561 nm was used for excitation, and a fluorescence signal in the range of 570-750 nm was collected.
The experiment method with dye 2b (2 μM), dye 2c (2 μM), dye 2d (2 μM), and dye 2e (2 μM) was the same with that with dye 2a, except that dye 2a was replaced.

[3] = Ultraviolet-visible absorption and fluorescence emission in chloroform; format: physicochemical; conditions: 10 μM in chloroform; for maximum emission wavelength (highest fluorescence intensity): excitation 380-385 nm, slit 3 nm/1.5 nm (2a-e), excitation 545-550 nm, slit 1.5 nm/3 nm (3a-e)
Method: The ultraviolet absorption and fluorescence emission of the dyes prepared above (at a concentration of 10 μM) in chloroform were tested. The horizontal ordinate is the wavelength, and the vertical ordinate is the absorbance and fluorescence intensity, respectively.
In the ultraviolet-visible absorption spectrum, dye 2a has the maximum absorption at 388 nm; and in the fluorescence spectrum, dye 2a has the highest fluorescence intensity at 457 nm, where the excitation wavelength is 380 nm, and the slit width is 3 nm/1.5 nm. In the ultraviolet-visible absorption spectrum, dye 2b has a maximum absorption wavelength of 386 nm; and in the fluorescence spectrum, dye 2b has a maximum emission wavelength of 459 nm, where the excitation wavelength is 385 nm, and the slit width is 3 nm/1.5 nm. In the ultraviolet-visible absorption spectrum, dye 2c has a maximum absorption wavelength of 385 nm; and in the fluorescence spectrum, dye 2c has a maximum emission wavelength of 455 nm, where the excitation wavelength is 380 nm, and the slit width is 3 nm/1.5 nm. In the ultraviolet-visible absorption spectrum, dye 2d has the maximum absorption at 380 nm; and in the fluorescence spectrum, dye 2d has the highest fluorescence intensity at 457 nm, where the excitation wavelength is 380 nm, and the slit width is 3 nm/1.5 nm. In the ultraviolet-visible absorption spectrum, dye 2e has a maximum absorption wavelength of 385 nm; and in the fluorescence spectrum, dye 2e has a maximum emission wavelength of 458 nm, where the excitation wavelength is 385 nm, and the slit width is 3 nm/1.5 nm. In the ultraviolet-visible absorption spectrum, dye 3a has the maximum absorption at 554 nm; and in the fluorescence spectrum, dye 3a has the highest fluorescence intensity at 604 nm, where the excitation wavelength is 550 nm, and the slit width is 1.5 nm/3 nm. In the ultraviolet-visible absorption spectrum, dye 3b has a maximum absorption wavelength of 552 nm; and in the fluorescence spectrum, dye 3b has a maximum emission wavelength of 597 nm, where the excitation wavelength is 550 nm, and the slit width is 1.5 nm/3 nm. In the ultraviolet-visible absorption spectrum, dye 3c has a maximum absorption wavelength of 552 nm; and in the fluorescence spectrum, dye 3c has a maximum emission wavelength of 621 nm, where the excitation wavelength is 550 nm, and the slit width is 1.5 nm/3 nm. In the ultraviolet-visible absorption spectrum, dye 3d has a maximum absorption wavelength of 551 nm; and in the fluorescence spectrum, dye 3d has a maximum emission wavelength of 607 nm, where the excitation wavelength is 545 nm, and the slit width is 1.5 nm/3 nm. In the ultraviolet-visible absorption spectrum, dye 3e has a maximum absorption wavelength of 553 nm; and in the fluorescence spectrum, dye 3e has a maximum emission wavelength of 585 nm, where the excitation wavelength is 550 nm, and the slit width is 1.5 nm/3 nm. The above UV absorption and fluorescence emission test methods are conventional methods.

[4] = tested on: mitochondria in HeLa cells; assay: Colocalization imaging with green mitochondrial marker Mito Tracker Green FM, laser confocal microscope; format: cell-based; conditions: 2 μM; for mitochondria labeling ability: red channel; for colocalization coefficient: versus Mito Tracker Green FM (100 nm)
Method: Dye 3a was formulated into a mother liquor in DMSO (dimethyl sulfoxide), and then added to a conventional cell culture medium to give a concentration of dye 3a in the cell culture medium of 2 μM. HeLa cells were co-cultured for 10 min in an incubator at saturated humidity, 37° C., and 5% CO2 (the experiment was same below). The green mitochondrial marker Mito Tracker® Green FM (100 nm) was added, and the cells were co-incubated for another 10 min, washed three times with a PBS buffer, and imaged under a laser confocal microscope. In the red channel, light of 561 nm was used for excitation, and a fluorescence signal in the range of 570-750 nm was collected. In the green channel, light of 488 nm was used for excitation, and a fluorescence signal in the range of 500-550 nm was collected.
The experiment method with dye 3b (2 μM), dye 3c (2 μM), dye 3d (2 μM), and dye 3e (2 μM) was the same with that with dye 3a, except that dye 3a was replaced.

Row | Structure (SMILES) | residual absorptivity [1] | mitochondria labeling ability [2] | colocalization coefficient [2] | maximum absorption wavelength [3] | maximum emission wavelength (highest fluorescence intensity) [3] | mitochondria labeling ability [4] | colocalization coefficient [4]
1 | CCN(CC)c1ccc2nc3c4ccccc4c(=O)cc-3oc2c1 [Nile Red, Nile red, reference compound] | 97% |  |  |  |  |  | 
2 | O=c1ccc2ccccc2o1 [coumarin, reference compound] | 94% |  |  |  |  |  | 
3 | CCN(CC)c1ccc2c(C)c(-c3ccc(C(N)=O)cc3)c(=O)oc2c1 [dye 2a] | 93% | has mitochondria labeling ability | 0.88 | 388 nm | 457 nm |  | 
4 | CCN(CC)c1ccc2c(C)c(-c3ccc(C(=O)NC)cc3)c(=O)oc2c1 [dye 2b] | 92% | have mitochondria labeling ability | 0.94 | 386 nm | 459 nm |  | 
5 | CCN(CC)c1ccc2c(C)c(-c3ccc(C(=O)N(C)C)cc3)c(=O)oc2c1 [dye 2c] | 95% | have mitochondria labeling ability | 0.88 | 385 nm | 455 nm |  | 
6 | CCN(CC)c1ccc2c(C)c(-c3ccc4c(c3)CC(=O)N4)c(=O)oc2c1 [dye 2d] | 91% | have mitochondria labeling ability | 0.92 | 380 nm | 457 nm |  | 
7 | CCN(CC)c1ccc2c(C)c(-c3ccc4c(c3)CCC(=O)N4)c(=O)oc2c1 [dye 2e] | 97% | have mitochondria labeling ability | 0.91 | 385 nm | 458 nm |  | 
8 | CCN(CC)c1ccc2nc3c4ccc(-c5ccc(C(N)=O)cc5)cc4c(=O)cc-3oc2c1 [dye 3a] | 93% |  |  | 554 nm | 604 nm | has mitochondria labeling ability | 0.94
9 | CCN(CC)c1ccc2nc3c4ccc(-c5ccc(C(=O)NC)cc5)cc4c(=O)cc-3oc2c1 [dye 3b] | 92% |  |  | 552 nm | 597 nm | has mitochondria labeling ability | 0.88
10 | CCN(CC)c1ccc2nc3c4ccc(-c5ccc(C(=O)N(C)C)cc5)cc4c(=O)cc-3oc2c1 [dye 3c] | 94% |  |  | 552 nm | 621 nm | has mitochondria labeling ability | 0.94
11 | CCN(CC)c1ccc2nc3c4ccc(-c5ccc6c(c5)CC(=O)N6)cc4c(=O)cc-3oc2c1 [dye 3d] | 93% |  |  | 551 nm | 607 nm | has mitochondria labeling ability | 0.96
12 | CCN(CC)c1ccc2nc3c4ccc(-c5ccc6c(c5)CCC(=O)N6)cc4c(=O)cc-3oc2c1 [dye 3e] | 92% |  |  | 553 nm | 585 nm | has mitochondria labeling ability | 0.92
